Legend:
[1] = Comparative photolysis in aqueous solution (Rayonet photochemical reactor, UV-VIS); assay type: physicochemical; conditions: for Time required for half-maximal photolysis: pH 7 (5:95), 16×350 nm lamps; for Photolysis upon irradiation: near-UV light, UV-visible spectrum of irradiated solution, conditions for 24 not given
Experimental: Comparative photolysis of methyl 1-acetyl-7-nitroindoline-5-acetate 16 and 1-acetyl-4-methoxy-7-nitroindoline 25 in aqueous solution. Separate 1 ml samples of each compound [0.0896 mM in EtOH-25 mM Na phosphate, pH 7 (5:95)] in 1 cm path length optical cells were photolysed simultaneously for 0, 0.25, 0.5, 1, 2, 4, 6 and 8 min in a Rayonet photochemical reactor (16×350 nm lamps) and UV-VIS spectra were recorded after each irradiation period. FIGS. 4 and 5 show the time course of photolysis for 16 and 25 respectively.
Comparative photolysis of 1-acetyl-4-methoxy-7-nitroindoline 25 and 1-acetyl-4-methoxy-[…] 30 in aqueous solution. Separate 1 ml samples of each compound [0.0748 mM in EtOH-25 mM Na phosphate, pH 7 (5:95)] in 1 cm path length optical cells were photolysed simultaneously for 0, 0.25, 0.5, 1, 2, 4 and 6 min in a Rayonet photochemical reactor (16×350 nm lamps) and UV-VIS spectra were recorded after each irradiation period. FIGS. 6 and 7 show the time course of photolysis for 25 and 30 respectively.
With the relative merits of the substitution pattern on the aromatic ring established, the effect of the more powerfully electron-releasing 4-dimethylamino group was probed. The required indole 32 was prepared via the semicarbazone 31 from N,N-dimethyl-2-methyl-3-nitroaniline by a modified Leimgruber-Batcho procedure (30). […] Nitration as before with NaNO3-TFA gave a complex mixture, from which the 5-nitro compound 34 was separated by chromatography. To achieve isolation of the required 7-nitro isomer 36, the remaining material was hydrolysed and the products chromatographed. The 5,7-dinitroindoline 35 was obtained in pure form, together with fractions that contained the presumed 7-nitroindoline. Acetylation of these combined fractions provided the desired material 36 in poor overall yield. Its structure was confirmed by nOe enhancement of the 5-proton upon irradiation of the dimethylamino signal. In the related 5-nitro isomer 34, irradiation of the dimethylamino signal had no effect on the integrated intensity of either aromatic proton signal. […] The series of compounds described in this latter series of experiments could be coupled to effector moieties, e.g. as described for compounds 10 and 21. [drawing 8] [drawing 9] [drawing 10]

glutamate ion channels = assay: Whole-cell patch clamp of cultured rat cerebellar granule neurones, with and without flash photolysis; assay type: cell-based
Experimental: The caged L-glutamate reagent 10 was tested in primary cultures of rat cerebellar granule neurones for its pharmacological actions and ability to effect photolytic activation of glutamate ion channels. All electrophysiological experiments were performed in Mg^2+-free mammalian Ringer's solution containing 100 μM glycine. Cells were voltage clamped at −65 mV with whole-cell patch clamp (17) and the glutamate sensitivity was established by responses to 20 ms pulses of L-glutamate, applied at a frequency of 0.25 Hz by iontophoresis from a 1-μm tipped glass pipette. […] The latter most likely arises from glutamate diffusion away from the photolyzed region. The time course of the initial decline may represent desensitization of non-NMDA glutamate channels.
During the slow decline there was a clear increase in the low frequency noise of the glutamate-activated current compared to baseline, consistent with gating of glutamate-activated ion channels.

[2] = Relative photolysis efficiencies of 8 and 11 (xenon arc lamp, HPLC); assay type: physicochemical
Experimental: Relative photolysis efficiencies of 8 and 11. A solution containing both 8 and 11 (each 0.5 mM) in 25 mM Na phosphate, pH 7.0 was irradiated in a 1-mm path length cell using light from a 100 W xenon arc lamp which passed through Hoya 340 and Schott WG 305 filters before. illuminating the cell. The extent of photolysis of each compound was determined by reverse-phase HPLC analysis (mobile phase 10 mM Na phosphate, pH 6.0+50% MeOH, 1.5 mL/min). Retention times for 8 and 11 were 3.8 and 7.8 min respectively. After 2 min irradiation, the extents of conversion for compounds 8 and 11 were 40 and 16% respectively.
Upon comparative photolysis of the 1-glutaryl derivatives 8 and 11 in aqueous solutions at pH 7 and without excluding atmospheric oxygen, the bromo compound 11 was indeed converted ˜2.5-fold less efficiently than 8. Photolysis of 8 proceeded cleanly, as shown by an isosbestic point at 365 nm in spectra of a solution photolyzed for increasing times to at least 65% conversion, but the photoproduct of the protecting group was not the 7-nitroindoline 12 (λmax 450 nm) expected from the previous report (6a). […] Further confirmation of the presence of a nitroso group was that treatment of 13, R=CH2CO2Me) with a thiol readily abolished the 412 nm chromophore, presumably by conversion to the corresponding hydroxylamine (11, 12). […] In control experiments, photolysis of the glutaryl compound 8 in CH2Cl2-dioxane-H2O (2:3:0.05) cleanly gave the expected (6a) nitroindoline 12.

[3] = Hydrolytic stability of 1-acyl-7-nitroindolines (reverse-phase HPLC); assay type: physicochemical; conditions: 62.5 mM Na phosphate, pH 12.01, 30° C.
Experimental: The extent of hydrolysis was determined by reverse-phase HPLC analysis (mobile phase 25 mM Na phosphate, pH 6.0+10% MeOH, 1.5 ml/min). […] Quantification was based on peak heights compared to those of unhydrolysed controls (to). First-order rate constants for hydrolysis were obtained from single exponential fits to the data.
In addition to the release rate of the bioeffector species following flash irradiation, important properties of any caged compound include stability in aqueous solution and its extent of photolysis upon a single flash irradiation.
In this context, hydrolytic stability refers to the amide bond. […] The use of the free acids avoided analytical complications from the much faster cleavage of the ester group.

[4] = Quantum yield estimation by laser flash irradiation (347 nm); assay type: physicochemical
Experimental: Quantum yield estimation for 10. A solution of 1-(2-nitrophenylethyl) phosphate and 10 (each 0.50 mM) together with dithiothreitol (5 mM) was prepared in 25 mM ammonium phosphate, pH 7.0. Aliquots of the solution ([…]) in a 1-mm path length cell were each subjected to one 50-ns flash from a frequency-doubled ruby laser, that delivered 347 nm light with an average energy of 90 mJ (range 83-104 mJ). The combined irradiated solutions were analyzed by reverse-phase HPLC (mobile phase 25 mM Na phosphate, pH 6.0+40% MeOH, 1.5 ml/min). Retention times were 4.2 and 7.2 min for 10 and 1-(2-nitrophenylethyl) phosphate respectively. Quantification was based on peak heights compared to those of the unphotolyzed control. Extinction coefficients at 347 nm used to calculate the relative quantum yields were 2720 and 510 M^−1cm^−1 for 10 and 1-(2-nitrophenylethyl) phosphate respectively. Photolysis and product analysis for compounds 10 and 18.
The product quantum yield (Qp) for photolysis of the glutamate derivative 10 was determined by laser flash irradiation (347 nm) of a solution containing 10 and 1-(2-nitrophenyl)ethyl phosphate (16) (both 0.5 mM in pH 7 phosphate buffer). Conversions by a single flash (˜90 mJ) were 9.7 and 23% respectively (reverse-phase HPLC), leading to Qp=0.043 by comparison with the known value (16) (0.54) for the caged phosphate and after correction for the different extinction coefficients at the irradiation wavelength. Although the value of Qp is low, the relatively high extinction coefficient at ˜350 nm (˜2700 M^−1cm^−1) compared to that of “classical” 2-nitrobenzyl-type caged compounds (˜600 M^−1cm^−1) enables similar photolytic efficiency to be achieved.

[5] = Photolysis and product analysis (HPLC and quantitative amino acid analysis); assay type: physicochemical; conditions: for Extent of photolysis (conversion): 0.5 mM, 25 mM ammonium phosphate pH 7.0, 3 min mercury arc lamp; for Measured concentration of glutamate as % of value calculated from extent of photolysis: 25 mM ammonium phosphate pH 7.0 ± 1 mM dithiothreitol; for Stoichiometry of effector release upon photolysis: quantitative amino acid analysis of part-photolyzed solutions
Experimental: Separate solutions of 10 (each 0.50 mM) in 25 mM ammonium phosphate, pH 7.0±1 mM dithiothreitol were irradiated in a 1-mm path length cell for 3 min using light from a mercury arc lamp which passed through Hoya 340 and Schott WG 305 filters before illuminating the cell. The extent of photolysis was determined by reverse-phase HPLC (mobile phase 25 mM Na phosphate, pH 6.0+10% MeOH, 1.5 ml/min). Quantification was based on peak heights compared to those of unphotolyzed controls. Aliquots of the photolyzed solutions were also subjected to quantitative amino acid analysis (see General Procedures).
Photolysis and product analysis for compound 21. A solution (0.5 mM) of 21 in 25 mM ammonium phosphate, pH 7.0 was irradiated as described for compound 10 and the photolyzed solution was quantified by reverse-phase HPLC and amino acid analysis.

[6] = 0.0748 mM in EtOH-25 mM Na phosphate
[7] = 0.0896 mM in EtOH-25 mM Na phosphate

## COc1ccc([N+](=O)[O-])c2c1CCN2C(C)=O [Compound 25, 1-Acetyl-4-methoxy-7-nitroindoline]
[1]; [6]
  Time required for half-maximal photolysis: ~0.4 min
[1]; [7]
  Time required for half-maximal photolysis: ~0.4 min
[1]; aqueous solution
  Fold more efficient photolysis than 30: ~2 fold
[1]; aqueous solution, equal concentration
  Fold more efficient photolysis than 16: ~3 fold

## COc1c(C)cc([N+](=O)[O-])c2c1CCN2C(C)=O [Compound 30, 1-Acetyl-4-methoxy-5-methyl-7-nitroindoline]
[1]; [6]
  Time required for half-maximal photolysis: ~0.9 min
[1]; aqueous solution
  Fold less efficient photolysis than 25: ~2 fold

## CC(=O)N1CCc2c(N(C)C)ccc([N+](=O)[O-])c21 [Compound 36, 1-acetyl-4-N,N-dimethylamino-7-nitroindoline]
[1]
  Photolysis upon irradiation: no detectable photolysis
other
  melting point: 177 to 178 °C

## COC(=O)Cc1cc2c(c([N+](=O)[O-])c1)N(C(C)=O)CC2 [Compound 16, Methyl 1-acetyl-7-nitroindoline-5-acetate]
[1]; [7]
  Time required for half-maximal photolysis: ~1.2 min

## COC(=O)Cc1cc([N+](=O)[O-])c(OC)c2c1N(C(C)=O)CC2 [Compound 24, Methyl 1-acetyl-4-methoxy-5-nitroindoline-7-acetate]
[1]
  Photolysis upon irradiation: photostable

## COC(=O)Cc1cc(N=O)c2[nH]ccc2c1 [Compound 13, Methyl 7-nitrosoindole-5-acetate]
Glutamate ion channels; control experiments during and after photolysis
  Effect of photolysis by-product on glutamate receptors or resting membrane properties: no adverse effect

## O=C(O)CCCC(=O)N1CCc2cc(Br)cc([N+](=O)[O-])c21 [Compound 11, 5-Bromo-1-glutaryl-7-nitroindoline]
[2]; after 2 min irradiation, 0.5 mM each, 25 mM Na phosphate pH 7.0, 100 W xenon arc lamp
  Extent of conversion (photolysis): 16%
[2]; aqueous solution pH 7, atmospheric oxygen not excluded
  Fold less efficient photolytic conversion than 8: ~2.5 fold

## COC(=O)Cc1cc2c(c([N+](=O)[O-])c1)N(C(=O)CC[C@H](N)C(=O)O)CC2 [Compound 10, Methyl 1-[S-(4-amino-4-carboxybutanoyl)]-7-nitroindoline-5-acetate]
[3]
  Half-times for hydrolysis (amide hydrolysis): 6 h
[4]
  Extinction coefficient at ~350 nm: ~2700 M⁻¹ cm⁻¹
[4]; 347 nm laser flash, ~90 mJ, 0.5 mM, pH 7 phosphate buffer
  Conversion by a single flash: 9.7%
[4]; 347 nm, by comparison with caged phosphate, corrected for extinction coefficients
  Product quantum yield (Qp): 0.043
[4]; used to calculate relative quantum yields
  Extinction coefficient at 347 nm: 2720 M⁻¹ cm⁻¹
[5]
  Extent of photolysis (conversion): ~35%
  Measured concentration of glutamate as % of value calculated from extent of photolysis: 90-94%
  Stoichiometry of effector release upon photolysis: 1:1 stoichiometry
[5]; separate experiments
  Efficiency of glutamate release upon photolysis, 10 vs the salt of its free acid: equal efficiency
Glutamate ion channels; 1 mM in bath, no photolysis
  Effect on peak response to iontophoretic pulses of L-glutamate: did not diminish
Glutamate ion channels; 1 mM in bath, −65 mV, no photolysis
  Activation of current in granule neurones by unphotolyzed caged compound: no activation of current
Glutamate ion channels; 1 ms light pulse
  Time scale of L-glutamate release by flash photolysis: on the same time scale as the light pulse
Glutamate ion channels; 1 ms xenon arc flash, Schott UG11 filter, n=8
  Rise of inward current after flash photolysis, exponential half-time (mean): 0.74 ms
Glutamate ion channels; after 1 ms xenon arc flash
  Fast decline of inward current, mean half-time: 2.9 ms
Glutamate ion channels; unphotolyzed compound
  Activity at glutamate ion channels of NMDA- and non-NMDA-activated types: inactive

## COC(=O)Cc1cc2c(c([N+](=O)[O-])c1)N(C(=O)CCCN)CC2 [Compound 21, Methyl 1-(4-aminobutanoyl)-7-nitroindoline-5-acetate]
[5]
  Extent of photolysis (conversion): 38%
  Stoichiometry of effector release upon photolysis: stoichiometric release of GABA

## N[C@@H](CCC(=O)N1CCc2cc(CC(=O)O)cc([N+](=O)[O-])c21)C(=O)O [Compound 18, 1-[S-(4-amino-4-carboxybutanoyl)]-7-nitroindoline-5-acetic acid]
[5]
  Extent of photolysis (conversion): ~51%
  Measured concentration of glutamate as % of value calculated from extent of photolysis: 97-108%
